Here are results for 22 molecules from ChEMBL document CHEMBL1125817, “Synthesis and evaluation of a series of 3,5-disubstituted benzisoxazole-4,7-diones. Potent radiosensitizers in vitro” (1991).

Each structure is given as a SMILES string.

For test [1], the species on record is Cricetulus griseus. Description: Concentration of the highest non-toxic dose tested. The class given is functional.
Test [2] in a line: Sensitizer enhancement ratio was determined from the ratio of the doses required to reduce cell survival to 25% of the control value obtained from hypoxic survival curves in the presence and absence of test compound. The class given is functional, Cricetulus griseus.
The species entered for test [3] is Cricetulus griseus. The experiment in a line: Concentration of the highest non-toxic dose tested; c = Compound was too insoluble to test. The class given is functional.
Test [4] is filed under the species Cricetulus griseus. Description: Sensitizer enhancement ratio was determined from the ratio of the doses required to reduce cell survival to 25% of the control value obtained from hypoxic survival curves in the presence and absence of test compound; c = Compound was too insoluble to test. The class given is functional.

As to `CN(C)CCCN(C)c1onc2c1C(=O)/C(=N\c1ccccc1)C=C2O`, in the test filed under Cricetulus griseus [1], the Concentration turned out to be 0.38 mM. Further, the Ratio in test [2] came out at 1.5.

The molecule `CN(C)CCCNc1onc2c1C(=O)/C(=N\c1ccc(F)cc1)C=C2O` had a Concentration in the test filed under Cricetulus griseus [1] of 0.38 mM. For the same molecule, in test [2], the Ratio is given as 1.4.

With `CCOc1onc2c1C(=O)/C(=N\c1ccc(C(F)(F)F)cc1)C=C2O`, the Concentration entry in the test filed under Cricetulus griseus [3] is “Too insoluble”. Also, the Ratio entry in the test listed under Cricetulus griseus [4] is “Too insoluble”.

Molecule `CN(C)CCNc1onc2c1C(=O)/C(=N\c1ccccc1)C=C2O` displayed a Concentration in the test listed under Cricetulus griseus [1] of 0.19 mM. Further, the Ratio in test [2] was 1.5.

`CCOc1onc2c1C(=O)/C(=N\c1ccc(F)cc1)C=C2O`: the Concentration entry in the test listed under Cricetulus griseus [3] is on record as “Too insoluble”. Further, the Ratio result in the test filed under Cricetulus griseus [4] was “Too insoluble”.

Turning to `CCOc1onc2c1C(=O)/C(=N\c1ccc(C)cc1)C=C2O`, in the test filed under Cricetulus griseus [3], the Concentration result is on record as “Too insoluble”. Moreover, the Ratio result in the test filed under Cricetulus griseus [4] is on record as “Too insoluble”.

Molecule `CN(C)CCCNc1onc2c1C(=O)/C(=N\c1ccccc1)C=C2O` registered a Concentration in the test listed under Cricetulus griseus [1] of 0.19 mM. The Ratio in test [2] came to 1.7.

Turning to `CCNc1onc2c1C(=O)/C(=N\c1ccccc1)C=C2O`, the Concentration result in the test filed under Cricetulus griseus [3] is given as “Too insoluble”. In addition, in the test filed under Cricetulus griseus [4], the Ratio entry is “Too insoluble”.

On to `O=C1C=C(Nc2ccc(F)cc2)C(=O)c2c1noc2NCCN1CCCCC1`, for which, in the test filed under Cricetulus griseus [1], the Concentration turned out to be 0.29 mM. Further, the Ratio in test [2] is on record as 1.6.

As to `O=C1C=C(Nc2ccc(Cl)cc2)C(=O)c2c1noc2NCCN1CCCCC1`, the Concentration in the test filed under Cricetulus griseus [1] turned out to be 0.19 mM. Besides, the Ratio in test [2] stood at 1.9.

In turn, `O=C1C=C(Nc2ccccc2)C(=O)c2c1noc2NCCN1CCCCC1` came in with a Concentration in the test listed under Cricetulus griseus [1] of 0.38 mM. The Ratio in test [2] came out at 2.4.

For `Cc1onc2c1C(=O)/C(=N\c1ccccc1)C=C2O`, in the test filed under Cricetulus griseus [3], the Concentration result was “Too insoluble”. Moreover, the Ratio entry in the test filed under Cricetulus griseus [4] is “Too insoluble”.

Take `CCN(CC)c1onc2c1C(=O)/C(=N\c1ccccc1)C=C2O`: in the test listed under Cricetulus griseus [3], the Concentration result is on record as “Too insoluble”. Besides, the Ratio entry in the test listed under Cricetulus griseus [4] is listed as “Too insoluble”.

In the test listed under Cricetulus griseus [1], `CCOc1onc2c1C(=O)/C(=N\c1ccccc1)C=C2O` showed a Concentration of 0.03 mM. Moreover, the Ratio in test [2] was determined as 1.3.

Molecule `CN(C)CCN(C)c1onc2c1C(=O)/C(=N\c1ccccc1)C=C2O` gave a Concentration in the test filed under Cricetulus griseus [1] of 0.38 mM. In addition, the Ratio in test [2] came out at 2.

In the test filed under Cricetulus griseus [1], `CN(C)CCCNc1onc2c1C(=O)/C(=N\c1ccc(Cl)cc1)C=C2O` showed a Concentration of 0.13 mM. Also, the Ratio in test [2] came to 1.7.

Take `CCOc1onc2c1C(=O)/C(=N\c1ccc(Cl)cc1)C=C2O`: the Concentration entry in the test listed under Cricetulus griseus [3] is recorded as “Too insoluble”. Besides, in the test filed under Cricetulus griseus [4], the Ratio entry is reported as “Too insoluble”.

`Cc1ccc(/N=C2/C=C(O)c3noc(NCCN(C)C)c3C2=O)cc1` came in with a Concentration in the test listed under Cricetulus griseus [1] of 0.05 mM. For the same molecule, in test [2], the Ratio came out at 1.2.

As for `O=C1C=C(Nc2ccccc2)C(=O)c2c1noc2-c1ccccc1`, the Concentration entry in the test filed under Cricetulus griseus [3] is “Too insoluble”. In the test listed under Cricetulus griseus [4], the Ratio entry is “Too insoluble”.

In the case of `O=C1/C(=N\c2ccccc2)C=C(O)c2noc(N(CCO)CCO)c21`, in the test filed under Cricetulus griseus [1], the Concentration worked out at 1.5 mM. The Ratio in test [2] came to 2.1.

In turn, `CN(C)CCCNc1onc2c1C(=O)/C(=N\c1ccc(C(F)(F)F)cc1)C=C2O` came in with a Concentration in the test filed under Cricetulus griseus [1] of 0.09 mM. The Ratio in test [2] worked out at 1.3.

As for `O=C1C=C(Nc2ccc(C(F)(F)F)cc2)C(=O)c2c1noc2NCCN1CCCCC1`, the Concentration in the test listed under Cricetulus griseus [1] stood at 0.13 mM. For the same molecule, the Ratio in test [2] is on record as 1.6.
